From patent publication US6727245B2, “Heterobicyclic derivatives” (Fujisawa Pharmaceutical Co., Ltd., priority 1994, dated 2004)

| Structure (SMILES) | melting point |
| --- | --- |
| O=c1c(Cc2cccnc2)nc2cccnc2n1-c1cccc(-c2cnc3ccccc3c2)c1 [Example 54(26), 4-[3-(3-Quinolyl)phenyl]-2-(3-pyridylmethyl)-3-oxo-3,4-dihydropyrido[2,3-b]pyrazine] | 237 °C |
| COc1ccc(-c2cccc(-n3c(=O)c(Cc4cccnc4)nc4cccnc43)c2)cc1OC1CCCC1 [Example 54(27), 4-[3-(3-Cyclopentyloxy-4-methoxyphenyl)phenyl]-2-(3-pyridylmethyl)-3-oxo-3,4-dihydropyrido[2,3-b]pyrazine] | 109 to 111 °C |
| O=c1c(Cc2cccnc2)nc2cccnc2n1-c1cccc(-c2cncc3ccccc23)c1 [Example 54(30), 4-[3-(4-Isoquinolyl)phenyl]-2-(3-pyridylmethyl)-3-oxo-3,4-dihydropyrido[2,3-b]pyrazine] | 157 to 163 °C |
| O=c1c(Cc2ccccc2)nc2cccnc2n1-c1cccc(NS(=O)(=O)c2ccccc2)c1 [Example 68(13), 2-Benzyl-4-(3-phenylsulfonylaminophenyl)-3-oxo-3,4-dihydropyrido[2,3-b]pyrazine] | 199 to 211 °C |
| O=C(Nc1ccccc1)Nc1cccc(-n2c(=O)c(Cc3ccccc3)nc3ccc(Sc4ccccc4)nc32)c1 [Example 68(14), 2-Benzyl-6-phenylthio-4-[3-(3-phenylureido)phenyl]-3-oxo-3,4-dihydropyrido[2,3-b]pyrazine] | 183 to 185 °C |
| O=c1c(Cc2ccccc2)nc2cccnc2n1-c1cccc(-n2cccc2)c1 [Example 68(15), 2-Benzyl-4-[3-(pyrrol-1-yl)phenyl]-3-oxo-3,4-dihydropyrido[2,3-b]pyrazine] | 169 to 170 °C |
| O=c1c(Cc2ccc(O)cc2)nc2cccnc2n1-c1cccc(-n2cccc2)c1 [Example 68(16), 2-(4-Hydroxybenzyl)-4-[3-(pyrrol-1-yl)phenyl]-3-oxo-3,4-dihydropyrido[2,3-b]pyrazine] | 263 °C |
| COC(=O)c1cccn1-c1cccc(-n2c(=O)c(Cc3ccccc3)nc3cccnc32)c1 [Example 68(17), 2-Benzyl-4-[3-(2-methoxycarbonylpyrrol-1-yl)phenyl]-3-oxo-3,4-dihydropyrido[2,3-b]pyrazine] | 190 to 191 °C |
| CCNC(=O)Nc1cccc(-c2cccc(-n3c(=O)c(Cc4cccnc4)nc4cccnc43)c2)c1 [Example 73, 4-[3-[3-(3-Ethylureido)phenyl]phenyl]-2-(3-pyridylmethyl)-3-oxo-3,4-dihydropyrido[2,3-b]pyrazine] | 257 to 258 °C |
| O=C(Nc1ccccc1)Nc1cccc(-c2cccc(-n3c(=O)c(Cc4cccnc4)nc4cccnc43)c2)c1 [Example 74, 4-[3-[3-(3-Phenylureido)phenyl]phenyl]-2-(3-pyridylmethyl)-3-oxo-3,4-dihydropyrido[2,3-b]pyrazine] | 234 °C |
| O=C(Nc1cccc(-c2cccc(-n3c(=O)c(Cc4cccnc4)nc4cccnc43)c2)c1)c1ccc2ccccc2c1 [Example 76(2), 4-[3-[3-(2-Naphthoylamino)phenyl]phenyl]-2-(3-pyridylmethyl)-3-oxo-3,4-dihydropyrido[2,3-b]pyrazine] | 202 to 210 °C |
| O=C(Nc1cccc(-c2cccc(-n3c(=O)c(Cc4cccnc4)nc4cccnc43)c2)c1)c1cc2ccccc2s1 [Example 76(3), 4-[3-[3-[(Benzo[b]thiophen-2-yl)carbonylamino]phenyl]phenyl]-2-(3-pyridylmethyl)-3-oxo-3,4-dihydropyrido[2,3-b]pyrazine] | 216 to 218 °C |
| O=C(Nc1cccc(-c2cccc(-n3c(=O)c(Cc4cccnc4)nc4cccnc43)c2)c1)c1cnc2ccccc2n1 [Example 76(4), 4-[3-[3-(2-Quinoxalinylcarbonylamino)phenyl]phenyl]-2-(3-pyridylmethyl)-3-oxo-3,4-dihydropyrido[2,3-b]pyrazine] | 206 to 209 °C |
| O=C(/C=C/c1ccncc1)Nc1cccc(-c2cccc(-n3c(=O)c(Cc4cccnc4)nc4cccnc43)c2)c1 [Example 76(6), 4-[3-[3-[(E)-3-(4-Pyridyl)acryloylamino]phenyl]phenyl]-2-(3-pyridylmethyl)-3-oxo-3,4-dihydropyrido[2,3-b]pyrazine] | 185 to 191 °C |
| O=C(O)c1ccccc1C(=O)Nc1cccc(-c2cccc(-n3c(=O)c(Cc4cccnc4)nc4cccnc43)c2)c1 [Example 81, 4-[3-[3-(2-carboxybenzoylamino)phenyl]phenyl]-2-(3-pyridylmethyl)-3-oxo-3,4-dihydropyrido[2,3-b]pyrazine] | 150 °C (dec.) |
| O=C(O)CCC(=O)Nc1cccc(-c2cccc(-n3c(=O)c(Cc4cccnc4)nc4cccnc43)c2)c1 [Example 82(1), 4-[3-[3-(3-Carboxypropanoylamino)phenyl]phenyl]-2-(3-pyridylmethyl)-3-oxo-3,4-dihydropyrido[2,3-b]pyrazine] | 193 to 199 °C |
| O=C(/C=C(\C(=O)O)c1ccccc1)Nc1cccc(-c2cccc(-n3c(=O)c(Cc4cccnc4)nc4cccnc43)c2)c1 [Example 82(2), 4-[3-[3-[(Z)-3-Carboxy-3-phenylacryloylamino]phenyl]phenyl]-2-(3-pyridylmethyl)-3-oxo-3,4-dihydropyrido[2,3-b]pyrazine] | 189 to 198 °C (dec.) |
| O=C(Nc1cccc(-c2cccc(-n3c(=O)c(Cc4cccnc4)nc4cccnc43)c2)c1)C(F)(F)F [Example 83, 4-[3-(3-trifluoroacetylaminophenyl)phenyl]-2-(3-pyridylmethyl)-3-oxo-3,4-dihydropyrido[2,3-b]pyrazine] | 138 to 144 °C |
| O=c1c(Cc2ccccc2)nc2cccnc2n1-c1cccc(-n2c(Br)ccc2Br)c1 [Example 113, 2-Benzyl-4-[3-(2,5-dibromopyrrol-1-yl)phenyl]-3-oxo-3,4-dihydropyrido[2,3-b]pyrazine] | 90 °C (dec.) |

More lines, now with the values ahead:

| melting point | Structure (SMILES) |
| --- | --- |
| 193 to 197 °C | COC(=O)c1ccc2c(ccn2-c2cccc(-n3c(=O)c(Cc4cccnc4)nc4cccnc43)c2)c1 [Example 54(25), 4-[3-(5-Methoxycarbonylindol-1-yl)phenyl]-2-(3-pyridylmethyl)-3-oxo-3,4-dihydropyrido[2,3-b]pyrazine] |
| 179 to 181 °C | COC(=O)c1cccc(-c2cccc(-n3c(=O)c(Cc4cccnc4)nc4cccnc43)c2)c1 [Example 54(28), 4-[3-(3-Methoxycarbonylphenyl)phenyl]-2-(3-pyridylmethyl)-3-oxo-3,4-dihydropyrido[2,3-b]pyrazine] |
| 180 to 181 °C | COC(=O)/C=C/c1cccc(-n2c(=O)c(Cc3cccnc3)nc3cccnc32)c1 [Example 54(29), 4-[3-[ (E)-2-Methoxycarbonylvinyl]phenyl]-2-(3-pyridylmethyl)-3-oxo-3,4-dihydropyrido[2,3-b]pyrazine] |
| 188 to 194 °C | CC(=O)Nc1cccc(-c2cccc(-n3c(=O)c(Cc4cccnc4)nc4cccnc43)c2)c1 [Example 54(31), 4-[3-(3-Acetamidophenyl)phenyl]-2-(3-pyridylmethyl)-3-oxo-3,4-dihydropyrido[2,3-b]pyrazine] |
| 248 to 252 °C | CNC(=O)Nc1cccc(-c2cccc(-n3c(=O)c(Cc4cccnc4)nc4cccnc43)c2)c1 [Example 72, 4-[3-[3-(3-Methylureido)phenyl]phenyl]-2-(3-pyridylmethyl)-3-oxo-3,4-dihydropyrido[2,3-b]pyrazine] |
| 202 to 204 °C | Nc1cccc(-c2cccc(-n3c(=O)c(Cc4cccnc4)nc4cccnc43)c2)c1 [Example 75, 4-[3-(3-Aminophenyl)phenyl]-2-(3-pyridylmethyl)-3-oxo-3,4-dihydropyrido[2,3-b]pyrazine] |
| 223 to 224 °C | CCC(=O)Nc1cccc(-c2cccc(-n3c(=O)c(Cc4cccnc4)nc4cccnc43)c2)c1 [Example 76(5), 4-[3-(3-Propionylaminophenyl)phenyl]-2-(3-pyridylmethyl)-3-oxo-3,4-dihydropyrido[2,3-b]pyrazine] |
| 130 to 160 °C (dec.) | CCOC(=O)/C=C/C(=O)Nc1cccc(-c2cccc(-n3c(=O)c(Cc4cccnc4)nc4cccnc43)c2)c1 [Example 77(3), 4-[3-[3-[(E)-3-Ethoxycarbonylacryloylamino]phenyl]phenyl]-2-(3-pyridylmethyl)-3-oxo-3,4-dihydropyrido[2,3-b]pyrazine] |
